Test results as given in patent US20230112418A1, “COMPOUND AND RADIOACTIVE LABELING COMPOUND” (NIHON MEDI-PHYSICS CO., LTD., priority 2020, published 2023).

Tests used:
[1] = system: LNCaP tumor transplanted mice; assay: In vivo radioactivity distribution using LNCaP tumor transplanted mice
Protocol: Animal experiments were performed in accordance with the guidelines of Kyoto University Animal Experiment Committee. Male CB17/IcrJcl-Prkdc^scid mice were purchased from CLEA Japan, Inc. The animals were raised under 12 h/12 h day/night cycle conditions and freely fed with food and water. LNCaP cells (1.0×10^7 cells/mouse) or PC-3 cells (1.0×10^7 cells/mouse) were suspended in a mixed liquid (1:1,150 μL) of PBS and Matrigel manufactured by Corning Life Sciences Inc., and the suspension was subcutaneously transplanted to the right shoulder of each of the mice under isoflurane anesthesia. Thereafter, the mice were raised for 40 to 60 days.
A saline solution (185 kBq, 100 μL) of [^111In]In-PSMA-DA1 or [^111In]In-PSMA-DB was injected into each of LNCaP or PC-3 tumor transplanted mice via the tail vein thereof (n=3 in each group). The mice were euthanized 1, 4, 24, 48, 96, and 192 hours after the injection. Thereafter, blood and organs were collected, and the mass and radioactivity of each of the organs were measured.
A result thereof is indicated as a value (% ID/g) obtained by dividing the percentage (% ID) of the amount of radioactivity with respect to the amount of injected radioactivity (injected dose) by the mass of blood or the mass of an organ (g). […]

[2] = target: human serum albumin (HSA) (Homo sapiens, UniProt P02768); assay: Evaluation of binding to albumin (spin column), HSA solution and PBS; details: FIG. 5
Protocol: Thereafter, the reaction liquid was added to a spin column (Sephadex G-100 manufactured by Cytiva), and centrifuged at 1500×g at 4° C. for two minutes. After the separation, the radioactivity of each of the column and the eluate was measured with a gamma counter.
Data was expressed as mean±standard deviation. A significant difference test was performed using Student's t-test, and a result of p<0.05 was defined to have a significant difference.
The higher a value, the higher binding property to albumin.
Thereafter, the reaction liquid was added to a spin column (Sephadex G-100 manufactured by Cytiva), and centrifuged at 1500×g at 4° C. for two minutes. After the centrifugation, the radioactivity of each of the column and the eluate was measured with a gamma counter.

[3] = system: LNCaP tumor transplanted mice; assay: SPECT/CT using LNCaP tumor transplanted mice; format: in vivo; details: FIG. 7
Protocol: A saline solution (1.9 to 3.0 MBq, 150 μL) of [^111In]In-PSMA-DA1 or [^111In]In-PSMA-DB was injected into each of the LNCaP tumor transplanted mice generated by the above-described method via the tail vein thereof. SPECT/CT was performed with an FX3300 pre-clinical imaging system manufactured by Gamma Medica-Ideas 24 and 48 hours after the injection. Imaging was performed under isoflurane anesthesia using a pinhole collimator with a diameter of 1.0 mm at a rotation radius of 35 mm, a scan time of 70 seconds, and the number of times of imaging of 32. After SPECT, CT (tube voltage: 60 kV, tube current: 350 μA) was performed. Image reconstruction by a three-dimensional ordered subset expectation maximization method (8 subsets, 5 iterations) was performed on projection data of SPECT.
Results of SPECT/CT are illustrated in FIG. 7. In FIG. 7, a portion indicated by an arrow is a position where the tumor is present, and a portion indicated by a circle is a position where the kidney is present. The higher the SUV, the amount of radioactivity accumulated is large.

human serum albumin (HSA), sequence (P02768 25-609): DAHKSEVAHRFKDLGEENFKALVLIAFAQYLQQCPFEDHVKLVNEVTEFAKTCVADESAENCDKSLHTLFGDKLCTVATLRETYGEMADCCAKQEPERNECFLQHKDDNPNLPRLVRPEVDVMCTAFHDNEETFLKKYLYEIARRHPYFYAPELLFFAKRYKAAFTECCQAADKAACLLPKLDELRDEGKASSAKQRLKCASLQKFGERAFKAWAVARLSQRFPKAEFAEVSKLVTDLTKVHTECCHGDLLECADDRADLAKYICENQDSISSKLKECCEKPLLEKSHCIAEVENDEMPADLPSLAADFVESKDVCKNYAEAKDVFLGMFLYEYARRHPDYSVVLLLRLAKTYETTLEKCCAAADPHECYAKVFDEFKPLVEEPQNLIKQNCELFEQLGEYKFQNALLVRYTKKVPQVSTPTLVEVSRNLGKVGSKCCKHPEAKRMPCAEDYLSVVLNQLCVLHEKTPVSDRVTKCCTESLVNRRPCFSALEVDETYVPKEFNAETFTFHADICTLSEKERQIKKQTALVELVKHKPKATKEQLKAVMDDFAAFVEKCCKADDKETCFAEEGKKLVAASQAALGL

O=C([O-])CN1CCN(C(CCC(=O)NCCCC[C@H](NC(=O)N[C@@H](CCC(=O)O)C(=O)O)C(=O)O)C(=O)[O-])CCN(CC(=O)[O-])CCN(C(CCC(=O)Nc2ccccc2)C(=O)[O-])CC1.[111In+3] (some centres unmarked) [[^111In]In-PSMA-DB]
Accumulation: Blood ([1]; 1 hour after injection): 3.33 ± 0.21 % ID/g | Accumulation: Brain ([1]; 1 hour after injection): 0.06 ± 0.01 % ID/g | Accumulation: Heart ([1]; 1 hour after injection): 0.87 ± 0.33 % ID/g | Accumulation: Intestinal ([1]; 1 hour after injection): 0.59 ± 0.14 % ID/g | Accumulation: Kidney ([1]; 1 hour after injection): 59.2 ± 35.2 % ID/g | Accumulation: LNCaP tumor ([1]; 1 hour after injection): 3.36 ± 0.04 % ID/g | Accumulation: Liver ([1]; 1 hour after injection): 0.91 ± 0.20 % ID/g | Accumulation: Lung ([1]; 1 hour after injection): 2.24 ± 0.60 % ID/g | Accumulation: Muscle ([1]; 1 hour after injection): 0.23 ± 0.68 % ID/g | Accumulation: Pancreas ([1]; 1 hour after injection): 0.74 ± 0.25 % ID/g | Accumulation: Spleen ([1]; 1 hour after injection): 3.05 ± 0.53 % ID/g | Accumulation: Stomach ([1]; 1 hour after injection): 0.10 ± 0.04 % ID | Accumulation: Blood ([1]; 4 hours after injection): 2.00 ± 0.29 % ID/g | Accumulation: Brain ([1]; 4 hours after injection): 0.05 ± 0.00 % ID/g | Accumulation: Heart ([1]; 4 hours after injection): 0.60 ± 0.08 % ID/g | Accumulation: Intestinal ([1]; 4 hours after injection): 1.05 ± 0.10 % ID/g | Accumulation: Kidney ([1]; 4 hours after injection): 22.7 ± 9.69 % ID/g | Accumulation: LNCaP tumor ([1]; 4 hours after injection): 2.50 ± 0.50 % ID/g | Accumulation: Liver ([1]; 4 hours after injection): 0.95 ± 0.05 % ID/g | Accumulation: Lung ([1]; 4 hours after injection): 1.56 ± 0.07 % ID/g | Accumulation: Muscle ([1]; 4 hours after injection): 0.21 ± 0.04 % ID/g | Accumulation: Pancreas ([1]; 4 hours after injection): 0.54 ± 0.22 % ID/g | Accumulation: Spleen ([1]; 4 hours after injection): 2.39 ± 0.05 % ID/g | Accumulation: Stomach ([1]; 4 hours after injection): 0.13 ± 0.03 % ID | Accumulation: Blood ([1]; 24 hours after injection): 0.68 ± 0.17 % ID/g | Accumulation: Brain ([1]; 24 hours after injection): 0.07 ± 0.02 % ID/g | Accumulation: Heart ([1]; 24 hours after injection): 0.43 ± 0.07 % ID/g | Accumulation: Intestinal ([1]; 24 hours after injection): 1.00 ± 0.44 % ID/g | Accumulation: Kidney ([1]; 24 hours after injection): 13.2 ± 2.41 % ID/g | Accumulation: LNCaP tumor ([1]; 24 hours after injection): 2.09 ± 0.39 % ID/g | Accumulation: Liver ([1]; 24 hours after injection): 1.55 ± 0.32 % ID/g | Accumulation: Lung ([1]; 24 hours after injection): 0.97 ± 0.15 % ID/g | Accumulation: Muscle ([1]; 24 hours after injection): 0.21 ± 0.07 % ID/g | Accumulation: Pancreas ([1]; 24 hours after injection): 0.71 ± 0.10 % ID/g | Accumulation: Spleen ([1]; 24 hours after injection): 3.37 ± 0.75 % ID/g | Accumulation: Stomach ([1]; 24 hours after injection): 0.16 ± 0.05 % ID | Accumulation: Blood ([1]; 48 hours after injection): 0.27 ± 0.16 % ID/g | Accumulation: Brain ([1]; 48 hours after injection): 0.03 ± 0.02 % ID/g | Accumulation: Heart ([1]; 48 hours after injection): 0.32 ± 0.05 % ID/g | Accumulation: Intestinal ([1]; 48 hours after injection): 0.79 ± 0.21 % ID/g | Accumulation: Kidney ([1]; 48 hours after injection): 8.58 ± 2.02 % ID/g | Accumulation: LNCaP tumor ([1]; 48 hours after injection): 1.69 ± 0.77 % ID/g | Accumulation: Liver ([1]; 48 hours after injection): 1.28 ± 0.16 % ID/g | Accumulation: Lung ([1]; 48 hours after injection): 0.66 ± 0.24 % ID/g | Accumulation: Muscle ([1]; 48 hours after injection): 0.15 ± 0.06 % ID/g | Accumulation: Pancreas ([1]; 48 hours after injection): 0.71 ± 0.17 % ID/g | Accumulation: Spleen ([1]; 48 hours after injection): 2.63 ± 0.83 % ID/g | Accumulation: Stomach ([1]; 48 hours after injection): 0.07 ± 0.02 % ID | Accumulation: Blood ([1]; 96 hours after injection): 0.14 ± 0.04 % ID/g | Accumulation: Brain ([1]; 96 hours after injection): 0.09 ± 0.05 % ID/g | Accumulation: Heart ([1]; 96 hours after injection): 0.40 ± 0.12 % ID/g | Accumulation: Intestinal ([1]; 96 hours after injection): 0.41 ± 0.17 % ID/g | Accumulation: Kidney ([1]; 96 hours after injection): 7.04 ± 3.28 % ID/g | Accumulation: LNCaP tumor ([1]; 96 hours after injection): 1.05 ± 0.03 % ID/g | Accumulation: Liver ([1]; 96 hours after injection): 1.59 ± 0.57 % ID/g | Accumulation: Lung ([1]; 96 hours after injection): 0.70 ± 0.15 % ID/g | Accumulation: Muscle ([1]; 96 hours after injection): 0.14 ± 0.08 % ID/g | Accumulation: Pancreas ([1]; 96 hours after injection): 0.85 ± 0.39 % ID/g | Accumulation: Spleen ([1]; 96 hours after injection): 2.82 ± 0.87 % ID/g | Accumulation: Stomach ([1]; 96 hours after injection): 0.10 ± 0.03 % ID | Accumulation: Blood ([1]; 192 hours after injection): 0.07 ± 0.03 % ID/g | Accumulation: Brain ([1]; 192 hours after injection): 0.04 ± 0.00 % ID/g | Accumulation: Heart ([1]; 192 hours after injection): 0.33 ± 0.01 % ID/g | Accumulation: Intestinal ([1]; 192 hours after injection): 0.13 ± 0.02 % ID/g | Accumulation: Kidney ([1]; 192 hours after injection): 3.47 ± 1.24 % ID/g | Accumulation: LNCaP tumor ([1]; 192 hours after injection): 0.83 ± 0.11 % ID/g | Accumulation: Liver ([1]; 192 hours after injection): 1.20 ± 0.09 % ID/g | Accumulation: Lung ([1]; 192 hours after injection): 0.67 ± 0.05 % ID/g | Accumulation: Muscle ([1]; 192 hours after injection): 0.14 ± 0.09 % ID/g | Accumulation: Pancreas ([1]; 192 hours after injection): 1.04 ± 0.18 % ID/g | Accumulation: Spleen ([1]; 192 hours after injection): 3.46 ± 0.32 % ID/g | Accumulation: Stomach ([1]; 192 hours after injection): 0.05 ± 0.00 % ID | Tumor accumulation compared with [^111In]In-PSMA-DA1 (in words) ([1]; LNCaP tumor): tumor accumulation lower than that of [^111In]In-PSMA-DA1 | Tumor/kidney ratio compared with [^111In]In-PSMA-DA1 (in words) ([1]; at any time point): lower tumor/kidney ratio | Radioactivity in the eluate, PBS (in words) [2]: no significant radioactivity was observed in the eluate | SPECT/CT radioactivity accumulation in the LNCaP tumor (in words) ([3]; 24 and 48 hours after the injection): radioactivity accumulation was also observed in the LNCaP tumor | SPECT/CT kidney versus tumor radioactivity (in words) [3]: the accumulation was lower than that in the kidney
